Assay results as given in patent publication US7666898B2, “Multivalent indole compounds and use thereof as phospholipase-A2 inhibitors” (Ilypsa, Inc., priority 2005, dated 2010).
pIC50: −log10 of the molar value. Like-named read-outs stand apart in the source and are kept apart here. One block for each compound: values may come before it.

Experiments:
[1] = test system: Caco-2 cells
Method: (§1) Briefly, the human colon adenocarcinoma cell line, Caco-2, was used to model intestinal drug absorption.
(§2) In order to determine the compound permeability, Caco-2 cells (ATCC) were seeded into 24-well transwells (Costar) at a density of 6×10^4 cells/cm^2. Monolayers were grown and differentiated in MEM (Mediatech) supplemented with 20% FBS, 100 U/ml penicillin, and 100 ug/ml streptomycin at 37° C., 95% humidity, 95% air, and 5% CO2. The culture medium was refreshed every 48 hours. After 21 days, the cells were washed in transport buffer made up of HBSS with HEPES and the monolayer integrity was evaluated by measuring the trans-epithelial electrical resistance (TEER) of each well. […]
(§3) 150 ul samples were collected for LC/MS analysis from the basolateral well at 15 min, 30 min, 45 min, 1 hr, 3 hr, and 6 hr time points; replacing the volume with pre-warmed transport buffer after each sampling. The apparent permeabilities in cm/s were calculated based on the equation: Papp=(dQ/dt)×(1/C0)×(1/A) where dQ/dt is the permeability rate corrected for the sampling volumes over time, C0 is the initial concentration, and A is the surface area of the monolayer (0.32 cm^2). At the end of the experiment, TEER measurements were retaken and wells with readings below 350 ohm-cm^2 indicated diminished monolayer integrity such that the data from these wells were not valid for analysis.

[2] = Bioavailability study of Compound 5-24 (Example 9); assay type: in vivo, male CD-1 Mus Musculus mice; conditions: oral ˜30 mg/kg vs IV ˜3 mg/kg, mice
Method: Bioavailability was determined for Compound 5-24 (ILY-V-24) as follows. Generally, the bioavailability was calculated by comparing a timecourse of the concentration of the test compound in the serum of mice after an intra-venous (IV) dosing, versus the timecourse of the concertration following an oral dosing of the test compound. The IV dose was ˜3 mg/kg, the oral dose was ˜30 mg/kg.
Oral Formulation. The oral formulation was prepared as follows. To sterile flask, 90 ml of sterile Milli-Q water was added. 9 ml of PEG-400 was added (final concentration of 9%). 50 ul of Tween-80 was added (final concentration of 0.05%). 0.9 g of CMC was weighed and added (final concentration of 0.9% w/v). […]
Study Design. […] On study day 0, all the animals were weighed, dosages were calculated and the animals were dosed by oral route (PO) or (IV) as outlined below in Table 7. […]
Calculations. Bioavailabilty was calculated as follows. Individual doses were calculated based on an average of body weights taken on the day of dosing. Serum concentrations of test compound, as well as the actual concentration of dosing solutions, were measured using 2-dimensional Mass Spectrophotometry after Liquid Chromatography (LC MS/MS). […]

[3] = target: T1, mouse group 1B PLA2 (mps PLA2) (Mus musculus, UniProt Q9Z0Y2); test: Fluorimetric PLA2 inhibition assay, mouse (Example 8); assay type: biochemical
T1 construct: made in house; host or cells: E. coli
T1 sequence (Q9Z0Y2 23-146): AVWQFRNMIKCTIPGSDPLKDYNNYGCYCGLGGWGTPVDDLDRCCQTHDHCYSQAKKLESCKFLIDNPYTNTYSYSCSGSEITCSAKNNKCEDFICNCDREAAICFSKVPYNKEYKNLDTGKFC
Excerpt: (§4) In this example, a fluorimetric assay procedure was used to evaluate the indole and indole-related compounds of the invention as inhibitors of group 1B phospholipase A2 (PLA2) from human, mouse and porcine.
(§5) In general, this assay used a phosphatidylmethanol substrate with a pyrene fluorophore on the terminal end of the sn-2 fatty acyl chain. Without being bound by theory, close proximity of the pyrenes from neighboring phospholipids in a phospholipid vesicle caused the spectral properties to change relative to that of monomeric pyrene. Bovine serum albumin was present in the aqueous phase and captured the pyrene fatty acid when it is liberated from the glycerol backbone owing to the PLA2-catalyzed reaction. […] The effect of a given inhibitor and inhibitor concentration on human, mouse and porcine phospholipase was determined.
(§6) Recombinant human and mouse group 1B PLA2 were cloned and expressed in E. coli as insoluble inclusion bodies. The inclusion bodies were isolated and purified by sonicating cell pellet in lysis buffer (50 mM Tris-HCl pH 7.0, 250 mM NaCl, 0.5% Triton 100), centrifugation at 12,000×g, and washing three times in washing buffer (20 mM Tris-HCl pH 7.0, 250 mM NaCl, 0.5% Triton 100). Then the inclusion bodies were dissolved in dissolving buffer (50 mM Tris-HCl pH 7.0, 250 mM NaCl, 6 M Guanidine-HCl, 1 mM DTT) and dialyzed four times against 10 volumes of refolding buffer (20 mM Tris-HCl pH 7.0, 250 mM NaCl, 0.5M Guanidine-HCl, 5% (w/w) Glycerol, 2 mM reduced glutathione and 0.4 mM oxidized glutathione) at 4° C. The correctly refolded proteins were concentrated using Amicon Stirred cell under nitrogen pressure (<70 psi) and dialyzed against 10 volumes of 50 mM Tris-HCl pH 7.0, 250 mM NaCl and 5% (w/w) glycerol. Human and mouse group 1B PLA2 were further purified by High S ion exchange and gel filtration columns.
(§7) The following reagents were prepared: • 1. PPyrPM stock solution (1 mg/ml) in toluene:isopropanol (1:1) • 2. […]
(§8) The following procedure was performed to evaluate the inhibitory potency of the evaluated compounds. • 1. […]

[4] = target: T2, human group 1B PLA2 (hps PLA2) (Homo sapiens, UniProt P04054); test: Fluorimetric PLA2 inhibition assay, human (Example 8); assay type: biochemical
T2 construct: made in house; host or cells: E. coli
T2 sequence (P04054 23-148): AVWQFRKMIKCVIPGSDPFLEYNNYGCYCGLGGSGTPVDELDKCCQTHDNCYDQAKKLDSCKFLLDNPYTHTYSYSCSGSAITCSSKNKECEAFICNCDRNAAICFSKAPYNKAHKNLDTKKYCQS
Excerpt: as §4, §5, §6, §7, §8

[5] = target: Porcine group 1 B phospholipase A2 (pps PLA2) (Sus scrofa, UniProt P00592); test: Fluorimetric PLA2 inhibition assay, porcine (Example 8)
Porcine group 1 B phospholipase A2 (pps PLA2), sequence (P00592 23-146): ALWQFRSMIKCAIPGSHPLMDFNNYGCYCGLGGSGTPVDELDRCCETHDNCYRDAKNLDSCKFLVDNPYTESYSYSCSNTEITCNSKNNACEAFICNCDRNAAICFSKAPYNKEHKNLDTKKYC
Excerpt: as §4, §5
The following reagents and equipments were obtained from commercial vendors: • 1. Porcine group 1 B phospholipase A2 • 2. 1-hexadecanoyl-2-(1-pyrenedecanoyl)-sn-glycero-3-phosphomethanol (PPyrPM) • 3. Bovine serum albumin (BSA, fatty acid free) • 4. 2-Amino-2-(hydroxymethyl)-1,3-propanediol, hydrochloride (Tris-HCl) • 5. […]
as §8
Evaluated compounds were tested in duplicate and their values were averaged to plot the inhibition curve and calculate the IC50. […]

[6] = test system: Caco-2 cells; test: In-vitro Caco-2 permeability study (Example 6B); conditions: Caco-2 monolayers, apical to basolateral
Method: as §1, §2, §3

[7] = target: mouse PLA2 IB enzyme (Mus musculus, UniProt Q9Z0Y2); conditions: pyrene substrate release from vesicles (Singer, Ghomashchi et al. 2002); read-out: IC50 versus the mouse PLA2 IB enzyme; cited from earlier work
mouse PLA2 IB enzyme, sequence (Q9Z0Y2 23-146): as the sequence (Q9Z0Y2 23-146) above

[8] = target: human PLA2 IB enzyme (Homo sapiens, UniProt P04054); conditions: pyrene substrate release from vesicles (Singer, Ghomashchi et al. 2002); read-out: IC50 versus the human PLA2 IB enzyme; cited from earlier work
human PLA2 IB enzyme, sequence (P04054 23-148): as the sequence (P04054 23-148) above

[9] = test system: C57BL/6 wild-type mice on high fat/high sucrose diabetogenic diet; test: In-vivo evaluation in mice on high fat/high sucrose diabetogenic diet (Example 5); set-up: species or system mouse; conditions: for fasting glucose levels: low dose 25 mg/kg/day
Method: ILY-4001 (FIG. 2) was evaluated as a PLA2 IB inhibitor in a set of experiments using wild-type mice and genetically deficient PLA2 (−/−) mice (also referred to herein as PLA2 knock-out (KO) mice). In these experiments, wild-type and PLA2 (−/−) mice were maintained on a high fat/high sucrose diet, details of which are described below.
Briefly, four groups were set up, each having six mice. Three of the groups included six wild-type PLA2 (+/+) mice in each group (eighteen mice total), and one of the groups included six genetically deficient PLA2 (−/−) mice. One of the wild-type groups was used as a wild-type control group, and was not treated with ILY-4001. The other two wild-type groups were treated with ILY-4001—one group at a lower dose (indicated as “L” in Table 1) of 25 mg/kg/day, and the other at a higher dose (indicated as “H” in Table 1) of 90 mg/kg/day. The group comprising the PLA2 (−/−) mice was used as a positive control group.
The experimental protocol used in this study was as follows. The four groups of mice, including wild type and isogenic PLA2 (−/−) C57BL/J mice were acclimated for three days on a low fat/low carbohydrate diet. After the three day acclimation phase, the animals were fasted overnight and serum samples taken to establish baseline plasma cholesterol, triglyceride, and glucose levels, along with baseline body weight. The mice in each of the treatment groups were then fed a high fat/high sucrose diabetogenic diet (Research Diets D12331). 1000 g of the high fat/high sucrose D12331 diet was composed of casein (228 g), DL-methionine (2 g), maltodextrin 10 (170 g), sucrose (175 g), soybean oil (25 g), hydrogenated coconut oil (333.5 g), mineral mix S10001 (40 g), sodium bicarbonate (10.5 g), potassium citrate (4 g), vitamin mix V10001 (10 g), and choline bitartrate (2 g). This diet was supplemented with ILY-4001 treatments such that the average daily dose of the compound ingested by a 25 g mouse was: 0 mg/kg/day (wild-type control group and PLA2 (−/−) control group); 25 mg/kg/day (low-dose wild-type treatment group), or 90 mg/kg/day (high-dose wild-type treatment group). The animals were maintained on the high fat/high sucrose diet, with the designated ILY-4001 supplementation, for a period of ten weeks.
Body weight measurements were taken for all animals in all treatment and control groups at the beginning of the treatment period and at 4 weeks and 10 weeks after initiation of the study. (See Example 5A). Blood draws were also taken at the beginning of the treatment period (baseline) and at 4 weeks and 10 weeks after initiation of the study, in order to determine fasting glucose (See Example 5B). Cholesterol and triglyceride levels were determined from blood draws taken at the beginning of the treatment (baseline) and at ten weeks. (See Example 5C).

[10] = Stability at low pH; assay type: physicochemical
[11] = Pharmokinetic study of ILY-4001 (Example 6C); assay type: in vivo, mice; conditions: 30 mg/kg oral
Method: Bioavailability was calculated as a ratio of AUC-oral/AUC-intravenous (IV). To determine this ratio, a first set of subject animals were given a measured intravenous (IV) dose of ILY-4001, followed by a determination of ILY-4001 levels in the blood at various time points after administration (e.g., 5 minutes through 24 hours). Another second set of animals was similarly dosed using oral administration, with blood levels of ILY-4001 determined at various time points after administration (e.g., 30 minutes through 24 hours). The level of ILY-4001 in systemic circulation were determined by generally accepted methods (for example as described in Evans, G., A Handbook of Bioanalysis and Drug Metabolism. Boca Raton, CRC Press (2004)). Specifically, […]/mass spectrometry/mass spectrometry (LC/MS/MS) analytical methods were used to quantitate plasma concentrations of ILY-4001 after oral and intravenous administration. Pharmacokinetic parameters that were measured include Cmax, AUC, tmax, t1/2, and F (bioavailability).
In this procedure, ILY-4001 was dosed at 3 mg/kg IV and 30 mg/kg oral. […] This indicated about a 72% level of non-absorption of ILY-4001 from the GI tract into systemic circulation.

[12] = low and high doses (25 and 90 mg/kg/day), 10 weeks

apparent permeability (cm/s) [1]: around 2.82×10^−7+/−0.37×10^−7 cm/s
Compound: Lucifer Yellow

Compound: Cc1c(C(=O)C(N)=O)c2c(OCC(=O)O)cccc2n1CCCCCCCCSCCCCCCCCSCCCCCCCCn1c(C)c(C(=O)C(N)=O)c2c(OCC(=O)O)cccc21 [ILY-v-24, 2,2′-(1,1′-(8,8′-(Octane-1,8-diylbis(sulfanediyl))bis(octane-8,1-diyl))bis(3-(2-amino-2-oxoacetyl)-2-methyl-1H-indole-4,1-diyl))bis(oxy)diacetic acid]
bioavailability [2]: 4-8%

Compound: 2-(3-Aminooxalyl-1-{12-[3-aminooxalyl-4-(1-carboxy-2-methyl-propoxy)-2-methyl-indol-1-yl]-dodecyl}-2-methyl-1H-indol-4-yloxy)-3-methyl-butyric acid [ILY-v-44]
IC50 ([3]; PPyrPM vesicles, 37° C., read-out: ILYPSA IC50 (μM) mps PLA2): 0.48 µM
IC50 ([4]; PPyrPM vesicles, 37° C., read-out: ILYPSA IC50 (μM) hps PLA2): 0.28 µM
IC50 ([5]; read-out: ILYPSA IC50 (μM) pps PLA2, PPyrPM vesicles, 37° C.): 0.05 µM

Compound: Cc1c(C(=O)C(N)=O)c2c(OCC(=O)O)cccc2n1Cc1ccccc1-c1ccccc1 [ILY-4001, 2-(3-(2-amino-2-oxoacetyl)-1-(biphenyl-2-ylmethyl)-2-methyl-1H-indol-4-yloxy)acetic acid]
apparent permeability (cm/s) [6]: around 1.66×10^−7 cm/s
pIC50 [7]: ~6.82
pIC50 [8]: ~6.70
body weight gain ([9]; 25 mg/kg/d and 90 mg/kg/d in diet, week 4 and week 10, vs wild-type control group): significantly reduced body weight gains
plasma levels of cholesterol [9, 12]: substantially reduced
plasma levels of triglycerides [9, 12]: substantially reduced
fasting glucose levels ([9]; week four): moderately beneficial effect
fasting glucose levels ([9]; week ten): a beneficial effect was not observed
stability at low pH [10]: stable at low pH
level of non-absorption from the GI tract into systemic circulation [11]: ~72%

Compound: (3-Aminooxalyl-1-benzyl-2-methyl-1H-indol-4-yloxy)-phenyl-acetic acid [ILY-IV-32]
ILYPSA % inhibition at 15 μM mps PLA2 ([3]; 15 μM compound): 47.49%
ILYPSA % inhibition at 15 μM hps PLA2 ([4]; 15 μM compound): 41.73%
ILYPSA % inhibition at 15 μM pps PLA2 ([5]; 15 μM compound): 38.5%
